From ChEMBL document CHEMBL3044947, “Isolation of an insecticidal compound oxalicine B from Penicillium sp. TAMA 71 and confirmation of its chemical structure by X-ray crystallographic analysis” (2007)
The source made the active and inactive calls. The rule behind the calls is not given here.

Columns and labels:
Bemisia argentifolii = experiment: Insecticidal activity against Bemisia argentifolii assessed as insect mortality at 500 ppm; assay type: functional, organism-based
Podosphaera fuliginea = experiment: Fungicidal activity against Podosphaera fuliginea at 500 ppm; assay type: functional, organism-based
[1] = tested on: Frankliniella occidentalis; experiment: Antifeedant activity against Frankliniella occidentalis (western flower thrips) at 500 ppm; assay type: functional, organism-based
Myzus persicae [2] = experiment: Insecticidal activity against Myzus persicae (green peach aphid) assessed as insect mortality at 200 ppm; assay type: functional
[3] = tested on: Frankliniella occidentalis; experiment: Insecticidal activity against Frankliniella occidentalis (western flower thrips) assessed as insect mortality at 500 ppm; assay type: functional
Plutella xylostella = experiment: Insecticidal activity against Plutella xylostella (diamondback moth) assessed as insect mortality at 500 ppm; assay type: functional, organism-based
Myzus persicae [4] = experiment: Insecticidal activity against Myzus persicae (green peach aphid) assessed as insect mortality at 100 ppm; assay type: functional
Tetranychus urticae = experiment: Miticidal activity against Tetranychus urticae (two-spotted spider mite) assessed as insect mortality at 500 ppm; assay type: functional, organism-based
Botrytis cinerea = experiment: Fungicidal activity against Botryotinia fuckeliana at 500 ppm; assay type: functional, organism-based

For `C=C(C)[C@]1(O)CC[C@]2(C)[C@H](CC=C(C)[C@]23Oc2cc(-c4cccnc4)oc(=O)c2[C@@H]3O)[C@@]12CCC(=O)OC2` [OXALICINE B], the Activity (Bemisia argentifolii) was “inactive”, the Activity (Podosphaera fuliginea) was “inactive” and the Activity [1] was “inactive”. For the same compound, the mortality at 200 ppm (Myzus persicae [2]) was 87%, the mortality at 500 ppm [3] was 32% and the Activity (Plutella xylostella) was “inactive”. The mortality at 100 ppm (Myzus persicae [4]) was 82%, the Activity (Tetranychus urticae) was “inactive” and the Activity (Botrytis cinerea) was “inactive”.
